Residues, ends and D or L forms follow the SMILES beside them.

The values below come from publication PMC6838683, “Discovery of Human Signaling Systems: Pairing Peptides to G Protein-Coupled Receptors” (Cell, 2019).

What all share (type): cell-based
The target of assay [1] is T1, BB3 (Homo sapiens, UniProt P32247).
T1 construct: hIL-2Ra signal peptide (N); expressed in transfected cells
T1 sequence (P32247 2-399 limits assumed): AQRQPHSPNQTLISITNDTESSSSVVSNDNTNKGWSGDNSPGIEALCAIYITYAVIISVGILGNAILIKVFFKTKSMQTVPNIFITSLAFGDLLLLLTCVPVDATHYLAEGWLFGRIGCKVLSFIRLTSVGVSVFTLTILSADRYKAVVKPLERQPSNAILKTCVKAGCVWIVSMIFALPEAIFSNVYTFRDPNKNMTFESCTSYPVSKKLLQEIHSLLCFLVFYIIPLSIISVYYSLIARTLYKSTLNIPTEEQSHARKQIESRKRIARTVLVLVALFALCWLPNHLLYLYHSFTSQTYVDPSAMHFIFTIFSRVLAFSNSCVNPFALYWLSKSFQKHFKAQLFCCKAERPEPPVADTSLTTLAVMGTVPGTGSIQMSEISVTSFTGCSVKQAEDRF
Kind of assay: Real-time receptor internalization (TR-FRET), concentration-response. Background: TR-FRET usually uses a lanthanide donor and a delayed reading to cut background.

Assay [2] has as its target T1, BB3. In words: IP1 accumulation (Gq/11), HTRF.
In assay [3] the target is T1, BB3. Kind of assay: Dynamic mass redistribution (DMR), concentration-response.
Assay [4] concerns the target T2, GPR1 (Homo sapiens, UniProt P46091).
T2 sequence (P46091 1-355): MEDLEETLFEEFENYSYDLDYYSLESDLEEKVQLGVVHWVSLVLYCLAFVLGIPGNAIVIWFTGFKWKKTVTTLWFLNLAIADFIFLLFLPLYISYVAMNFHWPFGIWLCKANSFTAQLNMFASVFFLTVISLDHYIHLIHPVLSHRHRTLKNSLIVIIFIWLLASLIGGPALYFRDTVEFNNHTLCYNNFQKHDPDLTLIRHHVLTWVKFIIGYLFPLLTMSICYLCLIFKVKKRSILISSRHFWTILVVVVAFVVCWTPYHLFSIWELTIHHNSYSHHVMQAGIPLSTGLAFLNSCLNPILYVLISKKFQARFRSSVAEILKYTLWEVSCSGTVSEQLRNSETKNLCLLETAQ
Kind of assay: β-arrestin recruitment (PathHunter). The conditions noted are these: receptor GPR1; mean, SEM and n (2-3); read-out: b-arrestin recruitment assays (PathHunter) pEC50 (converted). Here is the method:
PathHunter eXpress Assays (DiscoverX) were performed in 384-well format according to the manufacturer’s recommendations. GPR1 cells were incubated with peptides for 90 min and luminescence measured using an EnSpire 2300 Multimode plate reader (PerkinElmer).
Background: Recruitment of arrestin is a read-out of receptor activation apart from second messengers.

Setting [5] is: receptor BB3, mean, SEM and n (3), read-out: Internalization assays pEC50 (converted).
The mark [6] stands for this setting: IP1 accumulation assays pEC50, receptor BB3, mean, SEM and n (2-4).
[7] abbreviates: DMR assays pEC50, receptor BB3, mean, SEM and n (3).
[8] abbreviates: receptor BB3, mean, SEM and n (2-4), read-out: IP1 accumulation assays pEC50 (converted).
[9] abbreviates: receptor BB3, mean, SEM and n (3), read-out: DMR assays pEC50 (converted).
Setting [10] is: receptor BB3, mean, SEM and n (3).
The mark [11] stands for this setting: receptor BB3, mean, SEM and n (2-4).

Consider `CSCC[C@H](NC(=O)[C@H](Cc1ccccc1)NC(=O)[C@H](Cc1cnc[nH]1)NC(=O)CNC(=O)[C@@H](NC(=O)[C@H](C)NC(=O)[C@H](Cc1c[nH]c2ccccc12)NC(=O)[C@H](CC(C)C)NC(=O)[C@H](CC(N)=O)NC(=O)CN)[C@@H](C)O)C(N)=O` [59 resynthesized], for which the EC50 was 1550 nM in assay [1] (setting [5]), 525 nM in assay [2] (setting [6]) and 27.5 nM in assay [3] (setting [7]).

For `CC[C@H](C)[C@H](NC(=O)[C@H](CCCCN)NC(=O)[C@H](CO)NC(=O)[C@H](C)NC(=O)[C@H](CCCNC(=N)N)NC(=O)[C@H](CO)NC(=O)[C@H](CCCNC(=N)N)NC(=O)[C@@H]1CCCN1C(=O)[C@H](CCC(=O)O)NC(=O)[C@@H]1CCCN1C(=O)[C@H](CC(C)C)NC(=O)[C@H](CC(=O)O)NC(=O)[C@H](Cc1c[nH]c2ccccc12)NC(=O)[C@H](CO)NC(=O)[C@H](CC(C)C)NC(=O)[C@@H]1CCCN1C(=O)[C@H](C)N)C(=O)N[C@@H](CCCNC(=N)N)C(=O)N[C@H](C(=O)N[C@@H](Cc1c[nH]cn1)C(=O)N[C@@H](CO)C(=O)N[C@@H](CCCNC(=N)N)C(=O)NCC(=O)N[C@@H](CC(N)=O)C(=O)N[C@@H](CC(C)C)C(=O)N[C@@H](Cc1c[nH]c2ccccc12)C(=O)N[C@@H](C)C(=O)N[C@H](C(=O)NCC(=O)N[C@@H](Cc1c[nH]cn1)C(=O)N[C@@H](Cc1ccccc1)C(=O)N[C@@H](CCSC)C(N)=O)[C@@H](C)O)C(C)C` [59.1 (Phoenix)] (H-APLSWDLPEPRSRASKIRVHSRGNLWATGHFM-NH2), the figures for the EC50 in assay [1] (setting [5]), in assay [2] (setting [8]) and in assay [3] (setting [9]) were 646 nM, 224 nM and 49 nM, respectively.

As for `CC(C)C[C@H](NC(=O)[C@H](CCCCN)NC(=O)[C@H](CCC(N)=O)NC(=O)[C@@H](NC(=O)[C@H](CCCCN)NC(=O)[C@H](CO)NC(=O)[C@H](Cc1ccc(O)cc1)NC(=O)[C@H](Cc1c[nH]cn1)NC(=O)[C@H](Cc1ccccc1)NC(=O)[C@H](CC(C)C)NC(=O)[C@@H](N)Cc1ccccc1)[C@@H](C)O)C(N)=O` [67 resynthesized] (H-FLFHYSKTQKL-NH2), the EC50 in assay [1] (setting [5]) is 34700 nM; in assay [2] (setting [8]) it was 1660 nM; in assay [3] (setting [9]) it was 2690 nM.

As to `CSCC[C@H](NC(=O)[C@H](Cc1ccccc1)NC(=O)CNC(=O)CNC(=O)[C@@H](N)Cc1ccc(O)cc1)C(=O)N[C@@H](CCCNC(=N)N)C(=O)N[C@@H](CCCNC(=N)N)C(=O)N[C@H](C(=O)NCC(=O)N[C@@H](CCCNC(=N)N)C(=O)N1CCC[C@H]1C(=O)N[C@@H](CCC(=O)O)C(=O)N[C@@H](Cc1c[nH]c2ccccc12)C(=O)N[C@@H](Cc1c[nH]c2ccccc12)C(=O)N[C@@H](CCSC)C(=O)N[C@@H](CC(=O)O)C(=O)N[C@@H](Cc1ccc(O)cc1)C(=O)N[C@@H](CCC(N)=O)C(=O)N[C@@H](CCCCN)C(=O)N[C@@H](CCCNC(=N)N)C(=O)N[C@@H](Cc1ccc(O)cc1)C(=O)NCC(=O)NCC(=O)N[C@@H](Cc1ccccc1)C(=O)N[C@@H](CC(C)C)C(=O)O)C(C)C` [158 resynthesized] (H-YGGFMRRVGRPEWWMDYQKRYGGFL-OH), the EC50 in assay [1] (Internalization assays pEC50) was 3890 nM; in assay [2] (setting [6]), 3720 nM; in assay [3] (setting [7]), 110000 nM.

As to `CC(C)C[C@H](NC(=O)[C@H](Cc1ccccc1)NC(=O)CNC(=O)CNC(=O)[C@@H](N)Cc1ccc(O)cc1)C(=O)O` [158.2 (Phoenix)], the results for the EC50 in assay [1], in assay [2] and in assay [3] were 4680 nM, 15.8 nM and 245 nM, respectively.

On to `CC(C)C[C@H](NC(=O)[C@H](CCCCN)NC(=O)[C@H](CCC(N)=O)NC(=O)[C@@H](NC(=O)[C@H](CCCCN)NC(=O)[C@H](CO)NC(=O)[C@H](Cc1ccc(O)cc1)NC(=O)[C@H](Cc1c[nH]cn1)NC(=O)[C@H](Cc1ccccc1)NC(=O)[C@H](CC(C)C)NC(=O)[C@@H](N)Cc1ccccc1)[C@@H](C)O)C(N)=O` [Neuromedin U pre-pro_(1-11)] (H-FLFHYSKTQKL-NH2), for which the EC50 in assay [1] (BB3, mean, SEM and n, read-out: pEC50, Internalization (AUC) (converted)) was 31600 nM; in assay [2] (BB3, mean, SEM and n, read-out: pEC50, IP1 (converted)), 2190 nM; in assay [3] (BB3, mean, SEM and n, read-out: pEC50, DMR (peak) (converted)) it was 2290 nM.

Turning to `CSCC[C@H](NC(=O)[C@H](Cc1c[nH]c2ccccc12)NC(=O)[C@H](Cc1c[nH]c2ccccc12)NC(=O)[C@H](CCC(=O)O)NC(=O)[C@@H]1CCCN1C(=O)[C@H](CCCNC(=N)N)NC(=O)CNC(=O)[C@@H](N)C(C)C)C(=O)N[C@@H](CC(=O)O)C(=O)N[C@@H](Cc1ccc(O)cc1)C(=O)N[C@@H](CCC(N)=O)C(=O)N[C@@H](CCCCN)C(=O)N[C@@H](CCCNC(=N)N)C(=O)N[C@@H](Cc1ccc(O)cc1)C(=O)NCC(=O)NCC(=O)N[C@@H](Cc1ccccc1)C(=O)N[C@@H](CC(C)C)C(=O)O` [Peptide 158.4] (H-VGRPEWWMDYQKRYGGFL-OH), the EC50 in assay [1] is 10200 nM; in assay [2], 16200 nM; in assay [3] it was 8710 nM.

As to `CSCC[C@H](NC(=O)[C@H](Cc1c[nH]c2ccccc12)NC(=O)[C@H](Cc1c[nH]c2ccccc12)NC(=O)[C@H](CCC(=O)O)NC(=O)[C@@H]1CCCN1)C(=O)N[C@@H](CC(=O)O)C(=O)N[C@@H](Cc1ccc(O)cc1)C(=O)N[C@@H](CCC(N)=O)C(=O)N[C@@H](CCCCN)C(=O)N[C@@H](CCCNC(=N)N)C(=O)N[C@@H](Cc1ccc(O)cc1)C(=O)NCC(=O)NCC(=O)N[C@@H](Cc1ccccc1)C(=O)N[C@@H](CC(C)C)C(=O)O` [Peptide 158.6] (H-PEWWMDYQKRYGGFL-OH), the EC50 in assay [1] was 9550 nM; in assay [2], 31600 nM; in assay [3], 832 nM.

As to `CSCC[C@H](NC(=O)[C@H](CC(C)C)NC(=O)[C@H](Cc1cnc[nH]1)NC(=O)CNC(=O)[C@@H](NC(=O)[C@H](C)NC(=O)[C@H](Cc1c[nH]c2ccccc12)NC(=O)[C@H](Cc1cnc[nH]1)NC(=O)[C@H](CC(N)=O)NC(=O)CN)C(C)C)C(N)=O` [Peptide 167.1], the EC50 in assay [4] was 22900 nM; in assay [1] (setting [5]), 14500 nM; in assay [2] (setting [8]), 2510 nM; in assay [3] (setting [9]), 490 nM.

For the molecule FLFHYSKTQKL [67 original], the “Internalization assays Emax (AUC)” value in assay [1] (setting [10]) was 14.6. Moreover, the “IP1 accumulation assays Emax” value in assay [2] (setting [11]) was found to be 62.1 nM. Further, the “DMR assays Emax (peak or AUC)” value in assay [3] (setting [10]) was determined as 199.

In the case of “YGGFMRRVGRPEWWMDYQKRYGGFL [158 original]”, in assay [1] (setting [10]), the “Internalization assays Emax (AUC)” value turned out to be 16.0. Also, the “IP1 accumulation assays Emax” value in assay [2] (setting [11]) is 164.0 nM.
